Test results as given in PubChem BioAssay AID1918930 (Molecular Pharmacology Branch, DTP, NCI, 2023).

System: 233499-124-R-J3-PDC complex spheroid viability, % test/control
Assay: Anticancer human tumor 233499-124-R-J3-PDC patient-derived colon adenocarcinoma cell line growth inhibition
Details: for IC50: curve of first compound; for viability, T/C: stronger effect = lower value
How it was run: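 Complex spheroids of tumor cells with HUVEC and human MSCs, exposed to iadademstat combined with other agents. Each agent tested in half-log steps from near clinical Cmax (else 10 microM top), DMSO ≤0.25%.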

[1] = second compound 0.1 µM, first compound 0.0316 µM
[2] = second compound 0.1 µM, first compound 0.1 µM
[3] = second compound 0.1 µM, first compound 0.316 µM
[4] = second compound 0.1 µM, first compound 1 µM
[5] = second compound 0.1 µM, first compound 3.16 µM
[6] = second compound 0.1 µM, first compound 10 µM
[7] = second compound 0.316 µM, first compound 0.0316 µM
[8] = second compound 0.316 µM, first compound 0.1 µM
[9] = second compound 0.316 µM, first compound 0.316 µM
[10] = second compound 0.316 µM, first compound 1 µM
[11] = second compound 0.316 µM, first compound 3.16 µM
[12] = second compound 0.316 µM, first compound 10 µM
[13] = second compound 1 µM, first compound 0.0316 µM
[14] = second compound 1 µM, first compound 0.1 µM
[15] = second compound 1 µM, first compound 0.316 µM
[16] = second compound 1 µM, first compound 1 µM
[17] = second compound 1 µM, first compound 3.16 µM
[18] = second compound 1 µM, first compound 10 µM
[19] = second compound 3.16 µM, first compound 0.0316 µM
[20] = second compound 3.16 µM, first compound 0.1 µM
[21] = second compound 3.16 µM, first compound 0.316 µM
[22] = second compound 3.16 µM, first compound 1 µM
[23] = second compound 3.16 µM, first compound 3.16 µM
[24] = second compound 3.16 µM, first compound 10 µM
[25] = second compound 10 µM, first compound 0.0316 µM
[26] = second compound 10 µM, first compound 0.1 µM
[27] = second compound 10 µM, first compound 0.316 µM
[28] = second compound 10 µM, first compound 1 µM
[29] = second compound 10 µM, first compound 3.16 µM
[30] = second compound 10 µM, first compound 10 µM
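Further: spheroids exposed to agents for one week before readout.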

| Structure (SMILES) | IC50 (second compound 0.1 µM) | IC50 (second compound 0.316 µM) | IC50 (second compound 1 µM) | IC50 (second compound 3.16 µM) | IC50 (second compound 10 µM) | viability, T/C [1] | viability, T/C [2] | viability, T/C [3] | viability, T/C [4] | viability, T/C [7] | viability, T/C [8] | viability, T/C [9] | viability, T/C [10] | viability, T/C [13] | viability, T/C [14] | viability, T/C [15] | viability, T/C [16] | viability, T/C [19] | viability, T/C [20] | viability, T/C [21] | further results |
| --- | --- | --- | --- | --- | --- | --- | --- | --- | --- | --- | --- | --- | --- | --- | --- | --- | --- | --- | --- | --- | --- |
| CC(C)c1c(-c2ccccc2)nc2c(C#N)c[nH]n2c1=O + NC1CCC(NC2CC2c2ccccc2)CC1 | > 10 µM | > 10 µM | > 10 µM | > 10 µM | > 10 µM | 119% | 98.5% | 99.8% | 102% | 93.6% | 110% | 97.3% | 107% | 83.7% | 104% | 90% | 101% | 89.1% | 85.9% | 96.8% | viability, T/C [5]: 118%; viability, T/C [6]: 120%; viability, T/C [11]: 118%; viability, T/C [12]: 115%; viability, T/C [17]: 100%; viability, T/C [18]: 101%; viability, T/C [22]: 85.6%; viability, T/C [23]: 103%; viability, T/C [24]: 104%; viability, T/C [25]: 83.7%; viability, T/C [26]: 84.8%; viability, T/C [27]: 86.2%; viability, T/C [28]: 83.6%; viability, T/C [29]: 85.9%; viability, T/C [30]: 74.2% |
| CC1COCCN1c1cc(-c2ccnn2C)c2ccnc(-c3ccn[nH]3)c2n1 (stereo not given) + NC1CCC(NC2CC2c2ccccc2)CC1 | 0.0285 µM | 0.0577 µM | 0.019 µM | 0.0227 µM | 0.0175 µM | 46.1% | 45.4% | 25.4% | 30.7% | 63.8% | 39.1% | 30.1% | 33.6% | 32.8% | 33.9% | 21.9% | 28.5% | 39.9% | 30% | 18.1% | viability, T/C (second compound 0.1 µM, first compound 0.00316 µM): 86.8%; viability, T/C (second compound 0.1 µM, first compound 0.01 µM): 91.9%; viability, T/C (second compound 0.316 µM, first compound 0.00316 µM): 101%; viability, T/C (second compound 0.316 µM, first compound 0.01 µM): 79.2%; viability, T/C (second compound 1 µM, first compound 0.00316 µM): 87.3%; viability, T/C (second compound 1 µM, first compound 0.01 µM): 71.1%; viability, T/C (second compound 3.16 µM, first compound 0.00316 µM): 81.1%; viability, T/C (second compound 3.16 µM, first compound 0.01 µM): 71.2%; viability, T/C [22]: 22.2%; viability, T/C (second compound 10 µM, first compound 0.00316 µM): 79.5%; viability, T/C (second compound 10 µM, first compound 0.01 µM): 63.5%; viability, T/C [25]: 35%; viability, T/C [26]: 27.3%; viability, T/C [27]: 17.8%; viability, T/C [28]: 23.1% |
| COc1ccc([C@@H](O)c2cc(-c3ncnc4cc(N5CCOCC5)ccc34)c(F)cc2Cl)nn1 + NC1CCC(NC2CC2c2ccccc2)CC1 | 4.14 µM | 3.72 µM | 4.02 µM | 4.02 µM | 2.79 µM | 102% | 82.3% | 86.9% | 81.8% | 102% | 96.8% | 86.7% | 79.8% | 94.4% | 79.2% | 64.7% | 74.1% | 85.4% | 83.8% | 75.2% | viability, T/C [5]: 62.4%; viability, T/C [6]: 12.6%; viability, T/C [11]: 58.4%; viability, T/C [12]: 10.8%; viability, T/C [17]: 64%; viability, T/C [18]: 12.8%; viability, T/C [22]: 67.5%; viability, T/C [23]: 65.3%; viability, T/C [24]: 9.45%; viability, T/C [25]: 92.6%; viability, T/C [26]: 95.1%; viability, T/C [27]: 63.1%; viability, T/C [28]: 57.4%; viability, T/C [29]: 65.9%; viability, T/C [30]: 11.2% |
